How the values were obtained:
[1] = test system: cancer cell lines bearing different p53 mutations; experiment: CellTiter-Glo luminescent cell viability assay, cell line panel; type: cell-based, human; settings: most cancer cells compared with normal cells, 72 hr
Method: (§1) Cells at a concentration of 5000 cells/well in 96-well plates were treated with NSC59984 or other drugs. At seventy-two hours after treatment, cells were mixed with an equal volume of CellTiter-Glo reagents (Promega, Madison, Wis.), following the manufacturer's protocol, and bioluminescence imaging was measured using the IVIS imager.

[2] = test system: MRC-5 normal fibroblast cells; experiment: CellTiter-Glo cell viability, combination with CPT-11; type: cell-based, human; settings: for Combination index (CI): MRC, 72 hr
Method: as §1
(§2) All results were obtained from triplicate experiments, unless other indicated. Statistical analyses were performed using PRISM4 Software (GraphPad Software, Inc., San Diego, Calif., USA), ANOVA and Student's t-test. Statistical significances were determined by p<0.05. Combination indices were calculated using the Chou-Talalay method with CalcuSyn software (biosoft).

SW480 cancer cells = experiment: as above; type: cell-based, human; settings: for Combination index (CI): SW480, 72 hr
Method: as §1, §2

[3] = test system: Wi38 normal fibroblast cells; experiment: as above; type: cell-based, human; settings: for Combination index (CI): Wi38, 72 hr
Method: as §1, §2

Hop92 and SW480 cells = experiment: Flow cytometry sub-G1 DNA content; type: cell-based, human; settings: 25 μM and 50 μM, 8 hours
Method: Cells were treated with NSC59984 or other drugs. […] The samples were then subjected to analysis by an Epics Elite flow cytometer to measure the DNA content of the stained cells.

mutant p53 = mutant p53 (Homo sapiens, UniProt P04637, P309S/R273H); experiment: Phosphorylation Western blot; type: cell-based; parameters: Phosphorylation of mutant p53 at Thr 55 and phosphorylation of MDM2 at Ser166 were found in SW480 cancer cells; endogenous in cells; host or cells: SW480; settings: SW480 cells
Method: Proteins were extracted from cells and electrophoresed through 4-12% SDS-PAGE then transferred to PVDF membranes. The primary antibodies indicated in the figures were incubated with the transferred PVDF in blocking buffer at 4° C. overnight. Antibody binding was detected on PVDF with appropriate IRDye-secondary antibodies (LI-COR Biosciences, USA) by the ODYSSEY infrared imaging system.

[4] = CPT-11 15 mg/ml, NSC59984 12 mM
[5] = CPT-11 15 mg/ml, NSC59984 25 mM
[6] = CPT-11 30 mg/ml, NSC59984 12 mM
[7] = CPT-11 30 mg/ml, NSC59984 25 mM
[8] = CPT-11 60 mg/ml, NSC59984 12 mM
[9] = CPT-11 60 mg/ml, NSC59984 25 mM
[10] = CPT-11 120 mg/ml, NSC59984 6 mM
[11] = CPT-11 120 mg/ml, NSC59984 12 mM
[12] = CPT-11 120 mg/ml, NSC59984 25 mM
[13] = CPT-11 15 mg/ml, NSC59984 50 mM
[14] = CPT-11 30 mg/ml, NSC59984 50 mM
[15] = CPT-11 60 mg/ml, NSC59984 50 mM
[16] = CPT-11 120 mg/ml, NSC59984 50 mM

In the case of CN1CCN(C(=O)/C=C/c2ccc([N+](=O)[O-])o2)CC1 [NSC59984, (E)-1-(4-methylpiperazin-1-yl)-3-(5-nitrofuran-2-yl)prop-2-en-1-one], the EC50 cell viability [1] is reported as “significantly lower”, the “Combination index (CI)” value ([2]; CPT-11 15 mg/ml, NSC59984 50 μM) is reported as 0.00 ± 0.00 and the “Combination index (CI)” value ([2]; CPT-11 15 mg/ml, NSC59984 6 mM) is reported as 1.06 ± 0.43. The “Combination index (CI)” value [2, 4] was 0.91 ± 0.21, the “Combination index (CI)” value [2, 5] was 0.54 ± 0.03 and the “Combination index (CI)” value ([2]; CPT-11 30 mg/ml, NSC59984 50 μM) was 0.00 ± 0.00. For the same compound, the “Combination index (CI)” value ([2]; CPT-11 30 mg/ml, NSC59984 6 mM) was 0.75 ± 0.09, the “Combination index (CI)” value [2, 6] was 0.40 ± 0.07 and the “Combination index (CI)” value [2, 7] was 0.12 ± 0.07. For the same compound, the “Combination index (CI)” value ([2]; CPT-11 60 mg/ml, NSC59984 50 μM) was 0.00 ± 0.00, the “Combination index (CI)” value ([2]; CPT-11 60 mg/ml, NSC59984 6 mM) was 0.49 ± 0.09 and the “Combination index (CI)” value [2, 8] was 0.08 ± 0.04. For the same compound, the “Combination index (CI)” value [2, 9] was 0.00 ± 0.00, the “Combination index (CI)” value ([2]; CPT-11 120 mg/ml, NSC59984 50 μM) was 0.02 ± 0.00 and the “Combination index (CI)” value [2, 10] was 0.06 ± 0.02. The “Combination index (CI)” value [2, 11] was 0.00 ± 0.00, the “Combination index (CI)” value [2, 12] was 0.00 ± 0.00 and the “combinational treatment with CPT11” value ([2]; normal fibroblast MRC5 cells) was “synergic activity”. The “Combination index (CI)” value (SW480 cancer cells; CPT-11 15 mg/ml, NSC59984 6 mM) was 3.01 ± 0.20, the “Combination index (CI)” value (SW480 cancer cells; [4]) was 2.02 ± 0.27 and the “Combination index (CI)” value (SW480 cancer cells; [5]) was 0.66 ± 0.04. The “Combination index (CI)” value (SW480 cancer cells; [13]) was 1.00 ± 0.02, the “Combination index (CI)” value (SW480 cancer cells; CPT-11 30 mg/ml, NSC59984 6 mM) was 1.80 ± 0.15 and the “Combination index (CI)” value (SW480 cancer cells; [6]) was 0.38 ± 0.04. The “Combination index (CI)” value (SW480 cancer cells; [7]) was 0.65 ± 0.02, the “Combination index (CI)” value (SW480 cancer cells; [14]) was 0.40 ± 0.04 and the “Combination index (CI)” value (SW480 cancer cells; CPT-11 60 mg/ml, NSC59984 6 mM) was 0.64 ± 0.17. For the same compound, the “Combination index (CI)” value (SW480 cancer cells; [8]) was 0.22 ± 0.03, the “Combination index (CI)” value (SW480 cancer cells; [9]) was 0.57 ± 0.00 and the “Combination index (CI)” value (SW480 cancer cells; [15]) was 0.41 ± 0.04. For the same compound, the “Combination index (CI)” value (SW480 cancer cells; [10]) was 0.18 ± 0.01, the “Combination index (CI)” value (SW480 cancer cells; [11]) was 0.36 ± 0.08 and the “Combination index (CI)” value (SW480 cancer cells; [12]) was 0.62 ± 0.05. The “Combination index (CI)” value (SW480 cancer cells; [16]) was 0.23 ± 0.04, the “cell viability, combinational treatment with CPT11” value (SW480 cancer cells; SW480 cancer cells as compared to MRC5 and Wi38 normal cells, 72 hr) was “significantly reduced” and the “combinational treatment with CPT11” value (SW480 cancer cells; SW480 colon cancer cells) was “synergic activity”. The “Combination index (CI)” value ([3]; CPT-11 15 mg/ml, NSC59984 6 mM) was 1.50 ± 0.18, the “Combination index (CI)” value [3, 4] was 1.45 ± 0.12 and the “Combination index (CI)” value [3, 5] was 0.88 ± 0.11. For the same compound, the “Combination index (CI)” value [3, 13] was 0.03 ± 0.01, the “Combination index (CI)” value ([3]; CPT-11 30 mg/ml, NSC59984 6 mM) was 1.10 ± 0.14 and the “Combination index (CI)” value [3, 6] was 0.95 ± 0.05. The “Combination index (CI)” value [3, 7] was 0.20 ± 0.04, the “Combination index (CI)” value [3, 14] was 0.03 ± 0.00 and the “Combination index (CI)” value ([3]; CPT-11 60 mg/ml, NSC59984 6 mM) was 0.58 ± 0.10. For the same compound, the “Combination index (CI)” value [3, 8] was 0.44 ± 0.06, the “Combination index (CI)” value [3, 9] was 0.01 ± 0.00 and the “Combination index (CI)” value [3, 15] was 0.05 ± 0.00. The “Combination index (CI)” value [3, 10] was 0.96 ± 0.22, the “Combination index (CI)” value [3, 11] was 0.29 ± 0.04 and the “Combination index (CI)” value [3, 12] was 0.01 ± 0.00. The “Combination index (CI)” value [3, 16] was 0.11 ± 0.02, the “combinational treatment with CPT11” value ([3]; normal fibroblast Wi38 cells) was “synergic activity” and the “subG1 DNA-content” value (Hop92 and SW480 cells) was “nor subG1 DNA-content was increased”. The “phosphorylation of mutant p53” value (mutant p53) was “phosphorylated at Thr55”.

— US10322123B2, “Compound for anti-cancer therapy that acts by targeting GOF mutant P53 and stimulates P73 to restore the P53 pathway signaling” (The Penn State Research Foundation, priority 2014, dated 2019)
